In ChEMBL document CHEMBL3727346, “6-(pyridinyl)-4-pyrimidone derivates as tau protein kinase 1 inhibitors” (2011):

Target: Glycogen synthase kinase-3 beta splice variant X1 (Bos taurus, UniProt A0A059UE90)
Assay: Inhibition of bovine cerebral TPK1 assessed as reduction in P-GS1 phosphorylation using [32gammaP]ATP incubated for 2 hrs by liquid scintillation counting method

SMILES	IC50 [nM]
Cn1c(N2CCO[C@@H](c3c(F)cccc3Cl)C2)nc(-c2ccncc2F)cc1=O	1.4
Cn1c(N2CCO[C@@H](c3cc4ccccc4o3)C2)nc(-c2ccncc2F)cc1=O	7.9
CN(c1ccc([C@H]2CN(c3nc(-c4ccncc4F)cc(=O)n3C)CCO2)cc1)c1ccccn1	5.4
Cn1c(N2CCO[C@@H](c3ccc(N4CCC(N5CCCC5)CC4)cc3)C2)nc(-c2ccncc2F)cc1=O	1.7

The next lines start with the values.

IC50 [nM]	SMILES
3.9	CN(c1ccc([C@H]2CN(c3nc(-c4ccncc4F)cc(=O)n3C)CCO2)cc1)[C@@H]1CCOC1
4.2	Cn1c(N2CCO[C@@H](c3ccc(NC(=O)C(C)(C)C)cc3)C2)nc(-c2ccncc2F)cc1=O
0.27	CN(C)CC(=O)Nc1ccc([C@H]2CN(c3nc(-c4ccncc4F)cc(=O)n3C)CCO2)cc1
4.1	CC(=O)Nc1cccc([C@H]2CN(c3nc(-c4ccncc4F)cc(=O)n3C)CCO2)c1
